Measurements reported in PubChem BioAssay AID248 (DTP/NCI, 2004).
“And” between values parts separate entries of the source, which are not always exact repeats. Equal values may be shown once. Toxic doses and inconclusive results are not listed.

Tested on: L1210 leukemia ip in BDF1 mice, survival T/C
Test: NCI In Vivo Anticancer Drug Screen. Data for tumor model L1210 Leukemia (intraperitoneal) in B6D2F1 (BDF1) mice
Conditions: endpoint: mean survival time, higher = longer survival
Method in brief: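 Each compound was tested against a transplantable tumor grown in mice. The endpoint was survival, with treated animals benchmarked against vehicle controls as a simple ratio.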

[1] = dose: 50.0 mg/kg/injection, schedule: Q01DX009 (ip), vehicle: Klucel (hydroxypropylcellulose) (HPC)
[2] = dose: 100.0 mg/kg/injection, schedule: Q01DX009 (ip), vehicle: Klucel (hydroxypropylcellulose) (HPC)
[3] = dose: 100.0 mg/kg/injection, schedule: Q04DX002 (ip), vehicle: Klucel (hydroxypropylcellulose) (HPC)
[4] = dose: 200.0 mg/kg/injection, schedule: Q01DX009 (ip), vehicle: Klucel (hydroxypropylcellulose) (HPC)
[5] = dose: 100.0 mg/kg/injection, schedule: Q01DX001 (ip), vehicle: saline
[6] = dose: 200.0 mg/kg/injection, schedule: Q01DX001 (ip), vehicle: saline
[7] = dose: 400.0 mg/kg/injection, schedule: Q01DX001 (ip), vehicle: saline
[8] = dose: 100.0 mg/kg/injection, schedule: Q01DX001 (ip), vehicle: carboxymethylcellulose (CMC)
[9] = dose: 200.0 mg/kg/injection, schedule: Q01DX001 (ip), vehicle: carboxymethylcellulose (CMC)
[10] = dose: 400.0 mg/kg/injection, schedule: Q01DX001 (ip), vehicle: carboxymethylcellulose (CMC)
[11] = dose: 100.0 mg/kg/injection, schedule: Q04DX003 (ip), vehicle: Klucel (hydroxypropylcellulose) (HPC)
[12] = dose: 200.0 mg/kg/injection, schedule: Q04DX003 (ip), vehicle: Klucel (hydroxypropylcellulose) (HPC)
[13] = dose: 400.0 mg/kg/injection, schedule: Q04DX003 (ip), vehicle: Klucel (hydroxypropylcellulose) (HPC)
[14] = dose: 100.0 mg/kg/injection, schedule: Q04DX003 (ip), vehicle: saline with Tween-80
[15] = dose: 400.0 mg/kg/injection, schedule: Q04DX002 (ip), vehicle: saline with Tween-80
[16] = dose: 200.0 mg/kg/injection, schedule: Q04DX003 (ip), vehicle: saline with Tween-80
[17] = dose: 400.0 mg/kg/injection, schedule: Q04DX003 (ip), vehicle: saline with Tween-80

In the case of `O=C(N/N=C\c1ccc(Cl)cc1Cl)C1CC1`, the T/C (dose: 15.0 mg/kg/injection, schedule: Q01DX Z (ip), vehicle: carboxymethylcellulose (CMC)) is reported as 97 % of control, the T/C (dose: 30.0 mg/kg/injection, schedule: Q01DX Z (ip), vehicle: carboxymethylcellulose (CMC)) is reported as 92 % of control and the T/C (dose: 30.0 mg/kg/injection, schedule: Q01DX Z (oral), vehicle: carboxymethylcellulose (CMC)) is reported as 98 % of control. The T/C (dose: 60.0 mg/kg/injection, schedule: Q01DX Z (ip), vehicle: carboxymethylcellulose (CMC)) was 95 % of control, the T/C (dose: 60.0 mg/kg/injection, schedule: Q01DX Z (oral), vehicle: carboxymethylcellulose (CMC)) was 100 % of control and the T/C (dose: 120.0 mg/kg/injection, schedule: Q01DX Z (oral), vehicle: carboxymethylcellulose (CMC)) was 121 % of control.
`FC(F)(F)COC(Br)CBr` (configuration not stated) was tested, and the T/C (dose: 15.0 mg/kg/injection, schedule: Q01DX001 (ip), vehicle: carboxymethylcellulose (CMC)) was 101 % of control, the T/C (dose: 30.0 mg/kg/injection, schedule: Q01DX001 (ip), vehicle: carboxymethylcellulose (CMC)) was 93 % of control and the T/C (dose: 60.0 mg/kg/injection, schedule: Q01DX001 (ip), vehicle: carboxymethylcellulose (CMC)) was 95 % of control.
With `C[N+](C)(C)c1ccc(F)c([N+](=O)[O-])c1` the T/C (dose: 50.0 mg/kg/injection, schedule: Q01DX005 (ip), vehicle: Klucel (hydroxypropylcellulose) (HPC)) was 95 % of control, the T/C [1] was 96 % of control and the T/C (dose: 100.0 mg/kg/injection, schedule: Q01DX005 (ip), vehicle: Klucel (hydroxypropylcellulose) (HPC)) was 98 % of control. For the same molecule, the T/C [2] was 96 % of control, the T/C [3] was 90 % of control and the T/C (dose: 200.0 mg/kg/injection, schedule: Q01DX005 (ip), vehicle: Klucel (hydroxypropylcellulose) (HPC)) was 103 % of control. For the same molecule, the T/C [4] was 96 % of control and the T/C (dose: 200.0 mg/kg/injection, schedule: Q04DX002 (ip), vehicle: Klucel (hydroxypropylcellulose) (HPC)) was 96 % of control.
With `CCOC(=O)/C(C#N)=C1\CCc2cc(OC)ccc21` the T/C [5] was 96 % of control, the T/C (dose: 100.0 mg/kg/injection, schedule: Q01DX009 (ip), vehicle: other) was 103 % of control and the T/C [6] was 90 % of control. The T/C (dose: 200.0 mg/kg/injection, schedule: Q01DX009 (ip), vehicle: other) was 99 % of control, the T/C [7] was 92 % of control and the T/C (dose: 400.0 mg/kg/injection, schedule: Q01DX009 (ip), vehicle: other) was 97 % of control.
With `COc1cc(OC)c(OCc2ccccc2)c(OC)c1` the T/C [8] was 96 % of control, the T/C [9] was 94 % of control and the T/C [10] was 96 % of control.
With `Clc1ccc(/C=N/Nc2nnc(N/N=C/c3ccc(Cl)cc3)c3ccccc23)cc1` the T/C (dose: 50.0 mg/kg/injection, schedule: Q01DX001 (ip), vehicle: saline) was 95 % of control, the T/C [5] was 101 % of control and the T/C [6] was 101 % of control. For the same molecule, the T/C [7] was 95 % of control.
For `Cc1ccc(C(OC(=O)c2ccccc2)c2nccc3ccccc23)cc1` (configuration not stated), the T/C [5] was 86 % of control, the T/C [6] was 98 % of control and the T/C [7] was 98 % of control.
In the case of `CC(=O)Oc1c2ccccc2c(OC(C)=O)c2[nH]c(-c3ccccc3)cc12`, the T/C [11] is reported as 90 % of control, the T/C [12] is reported as 93 % of control and the T/C [13] is reported as 90 % of control.
For `Nc1nc2ccccc2c(Cl)c1Cl`, the T/C [1] was 86 % of control, the T/C [2] was 91 % of control and the T/C [4] was 91 % of control.
With `CSC(c1ccccc1F)=[N+]1CCCCC1` the T/C (dose: 5.0 mg/kg/injection, schedule: Q01DX001 (ip), vehicle: saline) was 100 % of control, the T/C (dose: 10.0 mg/kg/injection, schedule: Q01DX001 (ip), vehicle: saline) was 96 % of control and the T/C (dose: 20.0 mg/kg/injection, schedule: Q01DX001 (ip), vehicle: saline) was 95 % of control.
With `OC1CC2C=CC1C2` (configuration not stated) the T/C [8] was 93 % of control, the T/C [5] was 107 % of control and the T/C [9] was 95 % of control. For the same molecule, the T/C [6] was 88 % of control, the T/C [10] was 101 % of control and the T/C [7] was 109 % of control.
In the case of `CC(=O)OC(CC(O)(C(F)(F)F)C(F)(F)F)C(C)(C)C` (configuration not stated), the T/C (dose: 25.0 mg/kg/injection, schedule: Q01DX009 (ip), vehicle: saline) is reported as 104 % of control, the T/C (dose: 50.0 mg/kg/injection, schedule: Q01DX009 (ip), vehicle: saline) is reported as 102 % of control and the T/C [14] is reported as 98 % of control.
In the case of `Nc1ccc(CCc2nc(N)[nH]c(=O)c2CCCCc2ccccc2)cc1`, the T/C (dose: 25.0 mg/kg/injection, schedule: Q01DX001 (ip), vehicle: Klucel (hydroxypropylcellulose) (HPC)) is reported as 98 % of control, the T/C (dose: 50.0 mg/kg/injection, schedule: Q01DX001 (ip), vehicle: Klucel (hydroxypropylcellulose) (HPC)) is reported as 96 % of control and the T/C (dose: 100.0 mg/kg/injection, schedule: Q01DX001 (ip), vehicle: Klucel (hydroxypropylcellulose) (HPC)) is reported as 88 % of control.
With `COc1ccc(OC)c(NC(=O)Oc2ccc3c(C)cc(=O)oc3c2)c1` the T/C [2] was 101 % of control, the T/C [4] was 97 % of control and the T/C (dose: 400.0 mg/kg/injection, schedule: Q01DX009 (ip), vehicle: Klucel (hydroxypropylcellulose) (HPC)) was 87 % of control.
`Cc1cc(N(CCCl)CCCl)ccc1C=Nc1ccc(-c2csc(-c3ccccc3)n2)c(Cl)c1` was tested, and the T/C [8] was 98 % of control, the T/C [9] was 95 % of control and the T/C [10] was 107 % of control.
With `CC(=O)N(c1ccncc1)c1ccc(NC(=O)c2ccc(N3C(=O)c4ccccc4C3=O)cc2[N+](=O)[O-])cc1` the T/C (dose: 25.0 mg/kg/injection, schedule: Q04DX002 (ip), vehicle: saline with Tween-80) was 93 % of control and 102 % of control and the T/C [15] was 96 % of control and 88 % of control.
In the case of `O=NN(CCCl)C(=O)NC1C=CCCC1` (configuration not stated), the T/C (dose: 9.0 mg/kg/injection, schedule: Q01DX001 (ip), vehicle: other) is reported as 117 % of control, the T/C (dose: 20.0 mg/kg/injection, schedule: Q01DX001 (ip), vehicle: other) is reported as 158 % of control and the T/C (dose: 37.0 mg/kg/injection, schedule: Q01DX001 (ip), vehicle: other) is reported as 224 % of control. For the same molecule, the T/C (dose: 50.0 mg/kg/injection, schedule: Q01DX001 (ip), vehicle: other) was 175 % of control, the T/C (dose: 75.0 mg/kg/injection, schedule: Q01DX001 (ip), vehicle: other) was 173 % of control and the T/C (dose: 112.0 mg/kg/injection, schedule: Q01DX001 (ip), vehicle: other) was 166 % of control.
`O=[N+]([O-])/C=C/c1c[nH]c2ccccc12` was tested, and the T/C [14] was 92 % of control, the T/C [16] was 106 % of control and the T/C [17] was 103 % of control.
In the case of `O=S(=O)(/C=C(/Br)c1ccccc1)c1ccccc1`, the T/C [5] is reported as 92 % of control, the T/C [6] is reported as 97 % of control and the T/C [7] is reported as 95 % of control.
For `N#CCc1ccc(-c2ccccc2)cc1`, the T/C (dose: 12.5 mg/kg/injection, schedule: Q01DX009 (ip), vehicle: saline with Tween-80) was 103 % of control, the T/C (dose: 25.0 mg/kg/injection, schedule: Q01DX009 (ip), vehicle: saline with Tween-80) was 95 % of control and the T/C (dose: 50.0 mg/kg/injection, schedule: Q01DX009 (ip), vehicle: saline with Tween-80) was 94 % of control. The T/C (dose: 50.0 mg/kg/injection, schedule: Q04DX003 (ip), vehicle: saline with Tween-80) was 97 % of control, the T/C [8] was 100 % of control and the T/C [14] was 93 % of control. The T/C [9] was 100 % of control and the T/C [10] was 93 % of control.
In the case of `Nc1ccccc1Sc1ccc(C(=O)O)cc1[N+](=O)[O-]`, the T/C [11] is reported as 104 % of control, the T/C [12] is reported as 96 % of control and the T/C [13] is reported as 100 % of control.
With `CC(CCC1CCCCC1)c1ccccc1` (configuration not stated) (tested in a mixture with another compound) the T/C [14] was 93 % of control, the T/C [16] was 96 % of control and the T/C [17] was 93 % of control.
With `C/C=C/c1ccc(O)c(OC)c1` the T/C (dose: 100.0 mg/kg/injection, schedule: Q04DX002 (ip), vehicle: saline with Tween-80) was 92 % of control, the T/C (dose: 200.0 mg/kg/injection, schedule: Q04DX002 (ip), vehicle: saline with Tween-80) was 86 % of control and the T/C [15] was 86 % of control.
`NC(=O)C(Cc1cnc[nH]1)NC(=O)OCc1ccccc1` (configuration not stated) was tested, and the T/C (dose: 100.0 mg/kg/injection, schedule: Q01DX009 (ip), vehicle: saline with Tween-80) was 91 % of control, the T/C (dose: 200.0 mg/kg/injection, schedule: Q01DX009 (ip), vehicle: saline with Tween-80) was 96 % of control and the T/C (dose: 400.0 mg/kg/injection, schedule: Q01DX009 (ip), vehicle: saline with Tween-80) was 105 % of control.
For `O=C(OCc1ccccc1CN1CCCCC1)c1ccc(Br)cc1`, the T/C (dose: 25.0 mg/kg/injection, schedule: Q04DX002 (ip), vehicle: Klucel (hydroxypropylcellulose) (HPC)) was 115 % of control, the T/C (dose: 50.0 mg/kg/injection, schedule: Q04DX002 (ip), vehicle: Klucel (hydroxypropylcellulose) (HPC)) was 109 % of control and the T/C [3] was 105 % of control.
